Measured values from patent publication US20080107757A1, “Sophorae Subprostratae Radix Extract for Prevention and Treatment of Respiratory Diseases” (priority 2004, published 2008).

Columns and labels:
[1] = tested on: guinea pig; assay: Antitussive effect, citric acid aerosol-induced cough; format: in vivo
Method: The method used was the method by M. H. Boskabady et al. (journal of Entnopharmacology 97, 2005, 79-82) with a bit of modifications.
A Hartley male guinea pig (450˜500 g, SLC, Japan) was orally administered with a drug. 1 hr after the administration, the guinea pig was placed in Double Chamber Plethysmograph Box (HSE, Germany) installed with plethysmometer and stabilized by allowing a 5 min of time for adaptation. After the stabilization, 0.6M citric acid was sprayed to the guinea pig for 7 min in the form of aerosol by preparing a compressed air under high pressure. The guinea pig was observed continuously by a trained observer and the number of coughs induced by the above spray of citric acid aerosol was measured by using a microphone and a speaker. The coughs were distinguished from a normal sneeze due to its particular signs such as a peculiar and high sound with its mouth open, movement of abdomen, and an instant change in air flow.

[2] = tested on: Phosphodiesterase 4 (PDE4); assay: Inhibition of phosphodiesterase 4 (PDE4) activity, human U937 cells, [3H]cAMP; format: biochemical; conditions: positive control
Method: Human U937 cells were stabilized in the mixed solution comprising 50 mM Tris-HCl and 5 mM MgCl2 (pH 7.5) at 25° C. Sophorae Radix extract and 1.01 μM of ([3H]cAMP+cAMP) as a base material were combined together and allowed to react for 20 min to produce adenosine.

[3] = tested on: sensitized guinea pig; assay: Inhibition of airway contraction (in vivo), OVA aerosol bronchospasm, airway resistance by plethysmograph
Method: To evaluate the inhibitory effect of Sophorae Radix extract prepared in Preparation Examples 1-3 against airway contraction, experiments were performed as described below by exposing antigens to a sensitized guinea pig and the results are shown in Table 2.
A Hartely male guinea pig(400-450 g, SLC, Japan) was sensitized by intravenously injecting 1.5 mL/kg of anti-ovalbumin anti-serum. 48 hrs after the sensitization, the guinea pig was administered with a drug orally. In 30 min, the guinea pig was pretreated by injecting 10 mg/kg of pyrilamine maleate, 10 mg/kg of indomethacin, and 0.1 mg/kg of propranolol subcutaneously, respectively. Then, the guinea pig was placed in Double Chamber Plethysmograph Box(HSE, Germany) installed with plethysmometer for measuring various respiratory indices and measured basic airway resistance values. 30 min after the pretreatment, 1% OVA was nebulized for 2 min in the form of aerosol by preparing a compressed air under high pressure. Airway resistance was measured for 30 min as an indicator of bronchospasm.

## COc1ccc2c(c1)[C@]13CCCC[C@@H]1[C@H](C2)N(C)CC3 [Dextromethorphan]
[1]; 50 mg/kg oral
  Cough: 11.1 ± 2.5 (N = 7)
  Inhibition (%) of cough: 9%
[1]; 100 mg/kg oral
  Cough: 4.5 ± 2.6 (N = 10)
  Inhibition (%) of cough: 63%

## CC(C)Cn1c(=O)n(C)c(=O)c2[nH]cnc21 [IBMX, 3-isobutyl-1-methylxanthine]
[2]
  IC50: 20.7 µM

## CC(C)(O)c1ccccc1CC[C@@H](SCC1(CC(=O)O)CC1)c1cccc(/C=C/c2ccc3ccc(Cl)cc3n2)c1 [Montelukast]
[1]; 10 mg/kg oral
  Cough: 11.1 ± 2.9 (N = 9)
  Inhibition (%) of cough: 10%
[1]; 40 mg/kg oral
  Cough: 11.4 ± 4.3 (N = 7)
  Inhibition (%) of cough: 7%
[3]; 10 mg/kg oral
  Inhibition Rate of Bronchospasm (%): 45%
[3]; 40 mg/kg oral
  Inhibition Rate of Bronchospasm (%): 75%
